Data as given in PubChem BioAssay AID1963869 (Molecular Pharmacology Branch, DTP, NCI, 2024).
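Further: spheroids exposed to agents for 7 days.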
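Wherever viability, T/C is given: 100% = DMSO vehicle control viability.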

Each molecule was assayed on KRAS patient-derived spheroids with HUVEC/MSC, viability (assay: Anticancer human tumor 323965-272-R-J2-PDC patient-derived pancreatic carcinoma cell line growth inhibition [KRAS2]). Details: curve of first compound; second compound 0.1 µM.
How it was run: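 KRAS-mutant tumor cells were grown as spheroids with HUVEC endothelial cells and human MSCs as stroma. Targeted agents were tested alone and with KRAS pathway inhibitors. Doses started at or near clinical Cmax, or 10 microM, descending half-log.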
Molecule `CC(=O)Nc1cccc(-n2c(=O)n(C3CC3)c(=O)c3c(Nc4ccc(I)cc4F)n(C)c(=O)c(C)c32)c1` + CC1OCC2(CCN(c3cnc(Sc4ccnc(N)c4Cl)c(N)n3)CC2)C1N has an IC50 of 1.78 nM.
With `CC(C)n1nc(-c2ccc3oc(N)nc3c2)c2c(N)ncnc21` + CC1OCC2(CCN(c3cnc(Sc4ccnc(N)c4Cl)c(N)n3)CC2)C1N the IC50 was 1.23 nM.
With `COC(=O)c1ccc2c(C(=Nc3ccc(N(C)C(=O)CN4CCN(C)CC4)cc3)c3ccccc3)c(O)[nH]c2c1` + CC1OCC2(CCN(c3cnc(Sc4ccnc(N)c4Cl)c(N)n3)CC2)C1N the IC50 was > 10000 nM.
`COc1cc(Nc2ncc3c(n2)-c2ccc(Cl)cc2C(c2c(F)cccc2OC)=NC3)ccc1C(=O)O` + CC1OCC2(CCN(c3cnc(Sc4ccnc(N)c4Cl)c(N)n3)CC2)C1N gave an IC50 of 89.9 nM.
With `COc1cc2nccc(Oc3ccc(NC(=O)C4(C(=O)Nc5ccc(F)cc5)CC4)cc3)c2cc1OC` + CC1OCC2(CCN(c3cnc(Sc4ccnc(N)c4Cl)c(N)n3)CC2)C1N the IC50 was > 10000 nM.
For `O=C(c1cc(Cc2n[nH]c(=O)c3ccccc23)ccc1F)N1CCN(C(=O)C2CC2)CC1` + CC1OCC2(CCN(c3cnc(Sc4ccnc(N)c4Cl)c(N)n3)CC2)C1N, the IC50 was > 10000 nM.

Same assay, conditions: curve of first compound; second compound 0.316 µM
Work on `CC(=O)Nc1cccc(-n2c(=O)n(C3CC3)c(=O)c3c(Nc4ccc(I)cc4F)n(C)c(=O)c(C)c32)c1` + CC1OCC2(CCN(c3cnc(Sc4ccnc(N)c4Cl)c(N)n3)CC2)C1N yielded an IC50 of 0.438 nM.
`CC(C)n1nc(-c2ccc3oc(N)nc3c2)c2c(N)ncnc21` + CC1OCC2(CCN(c3cnc(Sc4ccnc(N)c4Cl)c(N)n3)CC2)C1N was tested, and the IC50 was < 0.316 nM.
In the case of `COC(=O)c1ccc2c(C(=Nc3ccc(N(C)C(=O)CN4CCN(C)CC4)cc3)c3ccccc3)c(O)[nH]c2c1` + CC1OCC2(CCN(c3cnc(Sc4ccnc(N)c4Cl)c(N)n3)CC2)C1N, the IC50 is reported as 5080 nM.
`COc1cc(Nc2ncc3c(n2)-c2ccc(Cl)cc2C(c2c(F)cccc2OC)=NC3)ccc1C(=O)O` + CC1OCC2(CCN(c3cnc(Sc4ccnc(N)c4Cl)c(N)n3)CC2)C1N was tested, and the IC50 was < 31.6 nM.
`COc1cc2nccc(Oc3ccc(NC(=O)C4(C(=O)Nc5ccc(F)cc5)CC4)cc3)c2cc1OC` + CC1OCC2(CCN(c3cnc(Sc4ccnc(N)c4Cl)c(N)n3)CC2)C1N was tested, and the IC50 was > 10000 nM.
`O=C(c1cc(Cc2n[nH]c(=O)c3ccccc23)ccc1F)N1CCN(C(=O)C2CC2)CC1` + CC1OCC2(CCN(c3cnc(Sc4ccnc(N)c4Cl)c(N)n3)CC2)C1N was tested, and the IC50 was > 10000 nM.

Same assay, conditions: curve of first compound; second compound 1 µM
With `CC(=O)Nc1cccc(-n2c(=O)n(C3CC3)c(=O)c3c(Nc4ccc(I)cc4F)n(C)c(=O)c(C)c32)c1` + CC1OCC2(CCN(c3cnc(Sc4ccnc(N)c4Cl)c(N)n3)CC2)C1N the IC50 was < 0.1 nM.
For `CC(C)n1nc(-c2ccc3oc(N)nc3c2)c2c(N)ncnc21` + CC1OCC2(CCN(c3cnc(Sc4ccnc(N)c4Cl)c(N)n3)CC2)C1N, the IC50 was < 0.316 nM.
For `COC(=O)c1ccc2c(C(=Nc3ccc(N(C)C(=O)CN4CCN(C)CC4)cc3)c3ccccc3)c(O)[nH]c2c1` + CC1OCC2(CCN(c3cnc(Sc4ccnc(N)c4Cl)c(N)n3)CC2)C1N, the IC50 was < 31.6 nM.
For `COc1cc(Nc2ncc3c(n2)-c2ccc(Cl)cc2C(c2c(F)cccc2OC)=NC3)ccc1C(=O)O` + CC1OCC2(CCN(c3cnc(Sc4ccnc(N)c4Cl)c(N)n3)CC2)C1N, the IC50 was < 31.6 nM.
`COc1cc2nccc(Oc3ccc(NC(=O)C4(C(=O)Nc5ccc(F)cc5)CC4)cc3)c2cc1OC` + CC1OCC2(CCN(c3cnc(Sc4ccnc(N)c4Cl)c(N)n3)CC2)C1N was tested, and the IC50 was < 31.6 nM.
Work on `O=C(c1cc(Cc2n[nH]c(=O)c3ccccc23)ccc1F)N1CCN(C(=O)C2CC2)CC1` + CC1OCC2(CCN(c3cnc(Sc4ccnc(N)c4Cl)c(N)n3)CC2)C1N yielded an IC50 of 9440 nM.

Same assay, conditions: curve of first compound; second compound 3.16 µM
`CC(=O)Nc1cccc(-n2c(=O)n(C3CC3)c(=O)c3c(Nc4ccc(I)cc4F)n(C)c(=O)c(C)c32)c1` + CC1OCC2(CCN(c3cnc(Sc4ccnc(N)c4Cl)c(N)n3)CC2)C1N was tested, and the IC50 was < 0.1 nM.
`CC(C)n1nc(-c2ccc3oc(N)nc3c2)c2c(N)ncnc21` + CC1OCC2(CCN(c3cnc(Sc4ccnc(N)c4Cl)c(N)n3)CC2)C1N was tested, and the IC50 was < 0.316 nM.
For `COC(=O)c1ccc2c(C(=Nc3ccc(N(C)C(=O)CN4CCN(C)CC4)cc3)c3ccccc3)c(O)[nH]c2c1` + CC1OCC2(CCN(c3cnc(Sc4ccnc(N)c4Cl)c(N)n3)CC2)C1N, the IC50 was < 31.6 nM.
With `COc1cc(Nc2ncc3c(n2)-c2ccc(Cl)cc2C(c2c(F)cccc2OC)=NC3)ccc1C(=O)O` + CC1OCC2(CCN(c3cnc(Sc4ccnc(N)c4Cl)c(N)n3)CC2)C1N the IC50 was < 31.6 nM.
With `COc1cc2nccc(Oc3ccc(NC(=O)C4(C(=O)Nc5ccc(F)cc5)CC4)cc3)c2cc1OC` + CC1OCC2(CCN(c3cnc(Sc4ccnc(N)c4Cl)c(N)n3)CC2)C1N the IC50 was < 31.6 nM.
`O=C(c1cc(Cc2n[nH]c(=O)c3ccccc23)ccc1F)N1CCN(C(=O)C2CC2)CC1` + CC1OCC2(CCN(c3cnc(Sc4ccnc(N)c4Cl)c(N)n3)CC2)C1N was tested, and the IC50 was < 31.6 nM.

Same assay, conditions: curve of first compound; second compound 10 µM
For `CC(=O)Nc1cccc(-n2c(=O)n(C3CC3)c(=O)c3c(Nc4ccc(I)cc4F)n(C)c(=O)c(C)c32)c1` + CC1OCC2(CCN(c3cnc(Sc4ccnc(N)c4Cl)c(N)n3)CC2)C1N, the IC50 was < 0.1 nM.
For `CC(C)n1nc(-c2ccc3oc(N)nc3c2)c2c(N)ncnc21` + CC1OCC2(CCN(c3cnc(Sc4ccnc(N)c4Cl)c(N)n3)CC2)C1N, the IC50 was < 0.316 nM.
With `COC(=O)c1ccc2c(C(=Nc3ccc(N(C)C(=O)CN4CCN(C)CC4)cc3)c3ccccc3)c(O)[nH]c2c1` + CC1OCC2(CCN(c3cnc(Sc4ccnc(N)c4Cl)c(N)n3)CC2)C1N the IC50 was < 31.6 nM.
In the case of `COc1cc(Nc2ncc3c(n2)-c2ccc(Cl)cc2C(c2c(F)cccc2OC)=NC3)ccc1C(=O)O` + CC1OCC2(CCN(c3cnc(Sc4ccnc(N)c4Cl)c(N)n3)CC2)C1N, the IC50 is reported as < 31.6 nM.
In the case of `COc1cc2nccc(Oc3ccc(NC(=O)C4(C(=O)Nc5ccc(F)cc5)CC4)cc3)c2cc1OC` + CC1OCC2(CCN(c3cnc(Sc4ccnc(N)c4Cl)c(N)n3)CC2)C1N, the IC50 is reported as < 31.6 nM.
In the case of `O=C(c1cc(Cc2n[nH]c(=O)c3ccccc23)ccc1F)N1CCN(C(=O)C2CC2)CC1` + CC1OCC2(CCN(c3cnc(Sc4ccnc(N)c4Cl)c(N)n3)CC2)C1N, the IC50 is reported as < 31.6 nM.

Same assay, conditions: second compound 0.1 µM; first compound 0.0001 µM; stronger effect = lower value
Work on `CC(=O)Nc1cccc(-n2c(=O)n(C3CC3)c(=O)c3c(Nc4ccc(I)cc4F)n(C)c(=O)c(C)c32)c1` + CC1OCC2(CCN(c3cnc(Sc4ccnc(N)c4Cl)c(N)n3)CC2)C1N yielded a viability, T/C of 80.7%.

Same assay, conditions: second compound 0.1 µM; first compound 0.000316 µM; stronger effect = lower value
With `CC(=O)Nc1cccc(-n2c(=O)n(C3CC3)c(=O)c3c(Nc4ccc(I)cc4F)n(C)c(=O)c(C)c32)c1` + CC1OCC2(CCN(c3cnc(Sc4ccnc(N)c4Cl)c(N)n3)CC2)C1N the viability, T/C was 72.3%.
Molecule `CC(C)n1nc(-c2ccc3oc(N)nc3c2)c2c(N)ncnc21` + CC1OCC2(CCN(c3cnc(Sc4ccnc(N)c4Cl)c(N)n3)CC2)C1N has a viability, T/C of 77%.

Same assay, conditions: second compound 0.1 µM; first compound 0.001 µM; stronger effect = lower value
`CC(=O)Nc1cccc(-n2c(=O)n(C3CC3)c(=O)c3c(Nc4ccc(I)cc4F)n(C)c(=O)c(C)c32)c1` + CC1OCC2(CCN(c3cnc(Sc4ccnc(N)c4Cl)c(N)n3)CC2)C1N showed a viability, T/C of 56.4%.
`CC(C)n1nc(-c2ccc3oc(N)nc3c2)c2c(N)ncnc21` + CC1OCC2(CCN(c3cnc(Sc4ccnc(N)c4Cl)c(N)n3)CC2)C1N gave a viability, T/C of 52.3%.

Same assay, conditions: second compound 0.1 µM; first compound 0.00316 µM; stronger effect = lower value
`CC(=O)Nc1cccc(-n2c(=O)n(C3CC3)c(=O)c3c(Nc4ccc(I)cc4F)n(C)c(=O)c(C)c32)c1` + CC1OCC2(CCN(c3cnc(Sc4ccnc(N)c4Cl)c(N)n3)CC2)C1N gave a viability, T/C of 41.8%.
Work on `CC(C)n1nc(-c2ccc3oc(N)nc3c2)c2c(N)ncnc21` + CC1OCC2(CCN(c3cnc(Sc4ccnc(N)c4Cl)c(N)n3)CC2)C1N yielded a viability, T/C of 36.2%.

Same assay, conditions: second compound 0.1 µM; first compound 0.01 µM; stronger effect = lower value
`CC(=O)Nc1cccc(-n2c(=O)n(C3CC3)c(=O)c3c(Nc4ccc(I)cc4F)n(C)c(=O)c(C)c32)c1` + CC1OCC2(CCN(c3cnc(Sc4ccnc(N)c4Cl)c(N)n3)CC2)C1N was tested, and the viability, T/C was 35%.
`CC(C)n1nc(-c2ccc3oc(N)nc3c2)c2c(N)ncnc21` + CC1OCC2(CCN(c3cnc(Sc4ccnc(N)c4Cl)c(N)n3)CC2)C1N was tested, and the viability, T/C was 26.7%.

Same assay, conditions: second compound 0.1 µM; first compound 0.0316 µM; stronger effect = lower value
`CC(=O)Nc1cccc(-n2c(=O)n(C3CC3)c(=O)c3c(Nc4ccc(I)cc4F)n(C)c(=O)c(C)c32)c1` + CC1OCC2(CCN(c3cnc(Sc4ccnc(N)c4Cl)c(N)n3)CC2)C1N gave a viability, T/C of 25.8%.
Molecule `CC(C)n1nc(-c2ccc3oc(N)nc3c2)c2c(N)ncnc21` + CC1OCC2(CCN(c3cnc(Sc4ccnc(N)c4Cl)c(N)n3)CC2)C1N has a viability, T/C of 18.1%.
`COC(=O)c1ccc2c(C(=Nc3ccc(N(C)C(=O)CN4CCN(C)CC4)cc3)c3ccccc3)c(O)[nH]c2c1` + CC1OCC2(CCN(c3cnc(Sc4ccnc(N)c4Cl)c(N)n3)CC2)C1N showed a viability, T/C of 78.8%.
`COc1cc(Nc2ncc3c(n2)-c2ccc(Cl)cc2C(c2c(F)cccc2OC)=NC3)ccc1C(=O)O` + CC1OCC2(CCN(c3cnc(Sc4ccnc(N)c4Cl)c(N)n3)CC2)C1N gave a viability, T/C of 79.5%.
For `COc1cc2nccc(Oc3ccc(NC(=O)C4(C(=O)Nc5ccc(F)cc5)CC4)cc3)c2cc1OC` + CC1OCC2(CCN(c3cnc(Sc4ccnc(N)c4Cl)c(N)n3)CC2)C1N, the viability, T/C was 80.4%.
`O=C(c1cc(Cc2n[nH]c(=O)c3ccccc23)ccc1F)N1CCN(C(=O)C2CC2)CC1` + CC1OCC2(CCN(c3cnc(Sc4ccnc(N)c4Cl)c(N)n3)CC2)C1N showed a viability, T/C of 73.2%.

Same assay, conditions: second compound 0.1 µM; first compound 0.1 µM; stronger effect = lower value
For `CC(C)n1nc(-c2ccc3oc(N)nc3c2)c2c(N)ncnc21` + CC1OCC2(CCN(c3cnc(Sc4ccnc(N)c4Cl)c(N)n3)CC2)C1N, the viability, T/C was 13.7%.
Molecule `COC(=O)c1ccc2c(C(=Nc3ccc(N(C)C(=O)CN4CCN(C)CC4)cc3)c3ccccc3)c(O)[nH]c2c1` + CC1OCC2(CCN(c3cnc(Sc4ccnc(N)c4Cl)c(N)n3)CC2)C1N has a viability, T/C of 85.7%.
Molecule `COc1cc(Nc2ncc3c(n2)-c2ccc(Cl)cc2C(c2c(F)cccc2OC)=NC3)ccc1C(=O)O` + CC1OCC2(CCN(c3cnc(Sc4ccnc(N)c4Cl)c(N)n3)CC2)C1N has a viability, T/C of 47.3%.
Molecule `COc1cc2nccc(Oc3ccc(NC(=O)C4(C(=O)Nc5ccc(F)cc5)CC4)cc3)c2cc1OC` + CC1OCC2(CCN(c3cnc(Sc4ccnc(N)c4Cl)c(N)n3)CC2)C1N has a viability, T/C of 80.5%.
`O=C(c1cc(Cc2n[nH]c(=O)c3ccccc23)ccc1F)N1CCN(C(=O)C2CC2)CC1` + CC1OCC2(CCN(c3cnc(Sc4ccnc(N)c4Cl)c(N)n3)CC2)C1N gave a viability, T/C of 73.4%.

Same assay, conditions: second compound 0.1 µM; first compound 0.316 µM; stronger effect = lower value
For `COC(=O)c1ccc2c(C(=Nc3ccc(N(C)C(=O)CN4CCN(C)CC4)cc3)c3ccccc3)c(O)[nH]c2c1` + CC1OCC2(CCN(c3cnc(Sc4ccnc(N)c4Cl)c(N)n3)CC2)C1N, the viability, T/C was 81.8%.
In the case of `COc1cc(Nc2ncc3c(n2)-c2ccc(Cl)cc2C(c2c(F)cccc2OC)=NC3)ccc1C(=O)O` + CC1OCC2(CCN(c3cnc(Sc4ccnc(N)c4Cl)c(N)n3)CC2)C1N, the viability, T/C is reported as 33.8%.
